# Data from patent US7868205B2, “Inhibitors of histone deacetylase” (MethylGene Inc., priority 2003, dated 2011).
# Read-outs that look alike come from different tables or passages of the source.
# Experiments:
# [1] = test system: p21^WAF1/Cip1 tumor suppressor gene; assay: p21WAF1/Cip1 assay (p21 promoter-driven luciferase reporter); assay type: cell-based, human; conditions: reference compound, value designated
# Method: (§1) Table 6C provides data on inhibition of HDAC1 enzyme, on antiproliferative activities (HCT116 human colon cancer cells) of the compounds using 3-[4,5-dimethylthiazol-2-yl-2,5-diphenyltetrazolium]bromide (MTT) assay, as well as induction of p21^WAF1/Cip1 tumor suppressor gene.
# HCT116 cells were stably transfected with reporter plasmids encoding the p21 promoter-driven luciferase. Cells were treated with indicated concentration of HDAC inhibitors for 16 hours before cells were harvested and luciferase activity analyzed. The effective concentration (EC) of MS-275 was designated as 1 uM. The ability of HDAC inhibitor was compared with that of MS-275 (T. Suzuki, et. al J. Med. Chem., 1999, 3001-3003).
# [2] = molecular target: human HDAC-1 (Homo sapiens, UniProt Q13547); assay: Inhibition of histone deacetylase enzymatic (HDAC-1) activity; assay type: biochemical
# Method: The following protocol was used to assay the compounds of the invention.
# The mixture was pre-incubated for 5 minutes at room temperature. The reaction was started by bringing the temperature to 37° C. and adding 16 μl substrate.
# [3] = test system: HCT116 human colon cancer cells; assay: MTT assay, antiproliferative activity; assay type: cell-based; conditions: HCT-116, 72 hours
# Method: as §1
# Compounds at various concentrations were added to human colon cancer HCT116 cells plated in 96-well plates. Cells were incubated for 72 hours at 37° C. in 5% CO2 incubator. MTT (3-[4,5-dimethylthiazol-2-yl]-2,5 diphenyl tetrazolium bromide, Sigma) was added at a final concentration of 0.5 mg/ml and incubated with the cells for 4 hours before an equal volume of solubilization buffer (50% N,N-dimethylformamide, 20% SDS, pH 4.7) was added onto cultured cells. After overnight incubation, solubilized dye was quantified by colorimetric reading at […] using a reference at 630 nM. OD values were converted to cell numbers according to a standard growth curve of the relevant cell line. The concentration which reduces cell numbers to 50% of those of DMSO-treated cells is determined as MTT IC50,
# [4] = Table 5, Boc-Lys(Ac)-AMC substrate, 37° C., 20 minutes, read-out: HDAC-1 (μM), inhibition of histone deacetylase
# [5] = Table 6A, comparative data for planar substituent, read-out: HDAC-1 activity (μm)
# [6] = Table 6B, comparative data for planar substituent, read-out: HDAC-1 Activity
# human HDAC-1, sequence (Q13547 whole entry): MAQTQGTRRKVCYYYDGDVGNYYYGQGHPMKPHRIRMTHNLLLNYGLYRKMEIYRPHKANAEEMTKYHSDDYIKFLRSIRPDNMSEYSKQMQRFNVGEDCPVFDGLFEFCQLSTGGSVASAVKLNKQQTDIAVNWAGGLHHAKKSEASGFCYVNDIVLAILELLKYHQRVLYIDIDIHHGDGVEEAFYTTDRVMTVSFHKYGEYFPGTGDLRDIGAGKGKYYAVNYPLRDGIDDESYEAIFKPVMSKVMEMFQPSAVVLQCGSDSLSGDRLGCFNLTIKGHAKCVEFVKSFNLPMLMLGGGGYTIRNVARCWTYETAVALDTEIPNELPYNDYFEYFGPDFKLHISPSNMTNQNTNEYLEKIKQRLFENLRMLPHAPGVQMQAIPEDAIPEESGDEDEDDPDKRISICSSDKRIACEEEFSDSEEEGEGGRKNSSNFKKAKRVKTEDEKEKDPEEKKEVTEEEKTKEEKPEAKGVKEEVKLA
IC50 ([2]; Table 6C) [µM],IC50 [3] [nM],"IC50 [2, 4] [µM]",SMILES,other results
–,–,–,"Nc1ccccc1NC(=O)c1ccc(CNC(=O)OCc2cccnc2)cc1 [MS-275, reference compound]",effective concentration (EC) for p21 induction [1]: 1 µM
< 1,1000 to 20000,–,Cn1nnc2cc(C(=O)Nc3cc(-c4cccs4)ccc3N)ccc21 [Compound 286],–
–,–,< 1,"COc1ccc(NCc2ccc(C(=O)Nc3cc(C#CCO)ccc3N)cc2)cc1OC [Cpd 76, N-[2-amino-5-(3-hydroxyprop-1-yn-1-yl)phenyl]-4-{[(3,4-dimethoxyphenyl)amino]methyl}benzamide]",–
< 1,< 1000,–,CC(=O)Oc1ccc(C(=O)Nc2cc(-c3cccs3)ccc2N)cc1 [Compound 184],–
< 1,< 1000,–,Cc1ccc(S(=O)(=O)Nc2ccc(/C=C/C(=O)Nc3cc(-c4cccs4)ccc3N)cc2)cc1 [Compound 146],–
–,–,–,"COc1ccc(NCc2ccc(C(=O)Nc3ccccc3N)cc2)cc1OC [AAA, reference compound]","IC50 [2, 5]: < 1 µM; IC50 [2, 6]: < 1 µM"
–,–,1 to 20,"COc1ccc(NCc2ccc(C(=O)Nc3cc(Cl)c(F)cc3N)cc2)cc1OC [Cpd 35, N-(2-Amino-5-chloro-4-fluoro-phenyl)-4-[(3,4-dimethoxy-phenylamino)-methyl]-benzamide]",–
< 1,1000 to 20000,–,N#Cc1ccc(C(=O)Nc2cc(-c3cccs3)ccc2N)cc1 [Compound 173],–
< 1,< 1000,–,Nc1ccc(-c2cccs2)cc1NC(=O)c1ccc2c(c1)OCCO2 [Compound 256b],–
< 1,< 1000,–,Nc1ccc(-c2cccs2)cc1NC(=O)c1ccc2c(c1)OCO2 [Compound 256a],–
< 1,< 1000,–,Nc1ccc(-c2cccs2)cc1NC(=O)c1ccc2[nH]cnc2c1 [Compound 258d],–
–,–,1 to 20,"CCCCc1ccc(N)c(NC(=O)c2ccc(C)cc2)c1 [Cpd 69, N-(2-amino-5-butylphenyl)-4-methylbenzamide]",–
–,–,< 1,"COc1cc(NCc2ccc3oc(C(=O)Nc4cc(-c5cccs5)ccc4N)cc3c2)cc(OC)c1OC [Cpd 29, N-[2-amino-5-(2-thienyl)phenyl]-5-{[(3,4,5-trimethoxyphenyl)amino]methyl}-1-benzofuran-2-carboxamide]",–
–,–,1 to 20,"COc1ccc(NCc2ccc(C(=O)Nc3cc(/C=C/C(N)=O)ccc3N)cc2)cc1OC [Cpd 88, N-{2-amino-5-[(1E)-3-amino-3-oxoprop-1-en-1-yl]phenyl}-4-{[(3,4-dimethoxyphenyl)amino]methyl}benzamide]",–
–,–,1 to 20,"COc1ccc(NCc2ccc(C(=O)Nc3ccc(-c4cccs4)cc3N)cc2)cc1OC [Cpd 16, N-[2-amino-4-(2-thienyl)phenyl]-4-{[(3,4-dimethoxyphenyl)amino]methyl}benzamide]",–
–,–,1 to 20,"COc1ccc(NCc2ccc(C(=O)Nc3cc(F)c(F)cc3N)cc2)cc1OC [B, N-(2-amino-4,5-difluorophenyl)-4-{[(3,4-dimethoxyphenyl)amino]methyl}benzamide, reference compound]",–
–,–,1 to 20,"COc1ccc(NCc2ccc(C(=O)Nc3c(N)cccc3N)cc2)cc1OC [Cpd 94, N-[2,6-diaminophenyl]-4-{[(3,4-dimethoxyphenyl)amino]methyl}benzamide]",–
< 1,< 1000,–,Cn1cnc2cc(C(=O)Nc3cc(-c4cccs4)ccc3N)ccc21 [Compound 283],–
–,–,> 20,"COc1ccc(NCc2ccc(C(=O)Nc3csc(-c4cccs4)c3N)cc2)cc1OC [Cpd 62, N-(3-amino-2,2′-bithien-4-yl)-4-{[(3,4-dimethoxyphenyl)amino]methyl}benzamide]",–
–,–,< 1,"Nc1ccc(-c2cccs2)cc1NC(=O)c1ccc(CNc2nccc(-c3cccnc3)n2)cc1 [Cpd 43, N-[2-amino-5-(2-thienyl)phenyl]-4{[(4-pyridin-3-ylpyrimidin-2-yl)amino]methyl}benzamide]",–
–,–,> 20,"COc1ccc(NCc2ccc(C(=O)Nc3cc(-c4cccs4)ccc3[N+](=O)[O-])cc2)cc1OC [Cpd 5, 4-[(3,4-dimethoxy-phenylamino)-methyl]-N-(2-nitro-5-thiophen-2-yl-phenyl)-benzamide]",–
< 1,1000 to 20000,–,Nc1ccc(-c2cccs2)cc1NC(=O)c1ccc(SC(F)(F)F)cc1 [Compound 143c],–
–,–,–,"COc1cc(NCc2ccc(/C=C/C(=O)Nc3ccccc3N)cc2)cc(OC)c1OC [QQ, reference compound]","IC50 [2, 6]: 1 to 20 µM"

IC50 ([2]; Table 6C) [µM],IC50 [3] [nM],"IC50 [2, 4] [µM]",SMILES,other results
–,< 1000,–,Nc1ccc(-c2cccs2)cc1NC(=O)c1ccc(CNC(=O)OCc2cccnc2)cc1 [Compound 143a],–
–,–,< 1,"COc1cc(NCc2ccc(/C=C/C(=O)Nc3cc(-c4cccs4)ccc3N)cc2)cc(OC)c1OC [Cpd 67, trans-N-[2-amino-5-(2-thienyl)phenyl]-3-(4-{[(3,4,5-trimethoxyphenyl)amino]methyl}phenyl)acrylamide]",–
–,–,< 1,"COc1ccc(NCc2ccc(C(=O)Nc3cc(-c4cccs4)ccc3N)cc2)cc1F [Cpd 12, N-[2-amino-5-(2-thienyl)phenyl]-4{[(3-fluoro-4-methoxyphenyl)amino]methyl}benzamide]",–
< 1,< 1000,–,CN1CCN(C(=O)Nc2ccc(C(=O)Nc3cc(-c4cccs4)ccc3N)cc2)CC1 [Compound 164],–
< 1,< 1000,–,COc1cccc(C(=O)Nc2cc(-c3cccs3)ccc2N)c1 [Compound 181],–
< 1,< 1000,–,COc1cc(C(=O)Nc2cc(-c3cccs3)ccc2N)cc2c1OCO2 [Compound 256c],–
–,–,> 20,"COc1ccc(NCc2ccc(C(=O)Nc3cccc(-c4cccs4)c3)cc2)cc1OC [Cpd 32, 4-{[(3,4-dimethoxyphenyl)amino]methyl}-N-[3-(2-thienyl)phenyl]benzamide]",–
–,–,1 to 20,"CCCCc1ccc(N)c(NC(=O)c2ccc(CNc3ccc(OC)c(OC)c3)cc2)c1 [Cpd 68, N-(2-amino-5-butylphenyl)-4-{[(3,4-dimethoxyphenyl)amino]methyl}benzamide]",–
–,–,–,"COc1ccc(NCc2ccc(C(=O)Nc3cc(C(F)(F)F)ccc3N)cc2)cc1OC [A, reference compound]","IC50 [2, 5]: 1 to 20 µM"
–,–,< 1,"COc1ccc(NCc2ccc(C(=O)Nc3cc(-c4cccs4)ccc3N)cc2)cc1OC [Cpd 6, N-[2-amino-5-(2-thienyl)phenyl]-4{[(3,4-dimethoxyphenyl)amino]methyl}benzamide]",–
–,–,1 to 20,"COc1ccc(NCc2ccc(C(=O)Nc3ccc(Br)cc3N)cc2)cc1OC [Cpd 18, N-(2-amino-4-bromophenyl)-4-{[(3,4-dimethoxyphenyl)amino]methyl}benzamide]",–
–,–,1 to 20,"COc1ccc(NCc2ccc(C(=O)Nc3cc(Br)ccc3N)cc2)cc1OC [Cpd 87, N-(2-amino-5-bromophenyl)-4-{[(3,4-dimethoxyphenyl)amino]methyl}benzamide]",–
–,–,–,"COc1ccc(NCc2ccc(C(=O)Nc3cc(-c4ccoc4)ccc3N)cc2)cc1OC [Cpd 91, N-[2-amino-5-(3-furanyl)phenyl]-4-{[(3,4-dimethoxyphenyl)amino]methyl}benzamide]",IC50 [2]: < 1 µM
–,–,> 20,"COc1ccc(NCc2ccc(C(=O)Nc3ccc(-c4cccs4)cc3[N+](=O)[O-])cc2)cc1OC [Cpd 15, 4-[(3,4-dimethoxy-phenylamino)-methyl]-N-(2-nitro-4-thiophen-2-yl-phenyl)-benzamide]",–
< 1,1000 to 20000,–,Nc1ccc(-c2cccs2)cc1NC(=O)c1ccc(F)cc1 [Compound 143b],–
–,–,> 20,"COc1ccc(NCc2ccc(C(=O)Nc3csc(-c4ccccc4)c3N)cc2)cc1OC [Cpd 61, N-(4-amino-5-phenyl-3-thienyl)-4-{[(3,4-dimethoxyphenyl)amino]methyl}benzamide]",–
–,–,< 1,"CN(C)CCOc1ccc2nc(SCc3ccc(C(=O)Nc4cc(-c5cccs5)ccc4N)cc3)[nH]c2c1 [Cpd 50, N-[2-amino-5-(2-thienyl)phenyl]-4[({6-[2-(dimethylamino)ethoxy]-1H-benzimidazol-2-yl}thio)methyl]benzamide]",–
–,–,> 20,"CCCCc1ccc(NC(=O)c2ccc(C)cc2)c(N)c1 [Cpd 71, N-(2-amino-4-butylphenyl)-4-methylbenzamide]",–
–,–,1 to 20,"COc1ccc(NCc2ccc(C(=O)Nc3cc(Cl)c(Cl)cc3N)cc2)cc1OC [Cpd 36, N-(2-Amino-4,5-dichloro-phenyl)-4-[(3,4-dimethoxy-phenylamino)-methyl]-benzamide]",–
< 1,< 1000,–,Nc1ccc(-c2cccs2)cc1NC(=O)c1ccc(CN2CCOCC2)cc1 [Compound 242],–
–,–,< 1,"COc1cc(CN2CCc3ccc(C(=O)Nc4cc(-c5cccs5)ccc4N)cc32)cc(OC)c1OC [Cpd 23, N-[2-amino-5-(2-thienyl)phenyl]-1-(3,4,5-trimethoxybenzyl)indoline-6-carboxamide]",–
< 1,< 1000,–,COc1cc(OC)c2cc(C(=O)Nc3cc(-c4cccs4)ccc3N)oc2c1 [Compound 245e],–
